Experimental data: patent US20250215032A1, “PHOSPHORYLPURINONE COMPOUNDS FOR THE TREATMENT OF CANCER” (Hoffmann-La Roche Inc., priority 2022, published 2025)
Converted amounts (≈) assume the structure as drawn.

Assays:
[1] = Lyophilisation solubility assay (LYSA), kinetic solubility; assay type: physicochemical; conditions: aqueous buffer; 0.05 M phosphate buffer (pH 6.5), from 10 mM DMSO stock after evaporation
Description: The solubility of a substance can be broadly defined as the maximum amount of the substance that dissolves in a specified volume of solvent. However, it is important to understand that the solubility of a compound can vary drastically depending on the condition of the solvent (e.g. temperature and pH) and the physiochemical properties of the compound (e.g. ionisation and crystallinity). These critical factors need to be considered during solubility determination in order to generate high quality solubility data that will be useful in the progression of compounds through the discovery and development stages. The kinetic solubility of a compound is the maximum solubility of the fastest precipitating species of the compound; this is often measured using a stock solution of the compound dissolved in an organic solvent, typically dimethyl sulfoxide (DMSO), as the starting material. […] The precipitate formed, which is rarely determined during the assessment, could be any combination of various possible solid states of the compound. Given the level of supersaturation that could occur when an organic solvent is diluted in water, kinetic solubility values are typically higher than the corresponding thermodynamic (equilibrium) solubility values. Solubility assays in the early discovery process often determine kinetic solubility. The lyophilisation solubility assay (LYSA) is a high throughput kinetic solubility assay for the early drug discovery process.
Samples were prepared in duplicate from 10 mM DMSO stock solution. After evaporation of DMSO with a centrifugal vacuum evaporator, the compounds were solved in 0.05 M phosphate buffer (pH 6.5), stirred for one hour and shaken for two hours. After one night, the solutions were filtered using a microtiter filter plate. Then the filtrate and its 1/10 dilution were analyzed by HPLC-UV. […] The results were in μg/mL. […] It should be noted that metastable solid phases may form during the evaporation step, and the method might therefore produce higher solubility values than assays using the stable polymorph as the starting material.

[2] = target: T1, human TLR7 (Homo sapiens, UniProt Q9NYK1); test: HEK293-Blue-hTLR7 cells assay (SEAP reporter, NF-κB activation)
T1 sequence (Q9NYK1 27-1049): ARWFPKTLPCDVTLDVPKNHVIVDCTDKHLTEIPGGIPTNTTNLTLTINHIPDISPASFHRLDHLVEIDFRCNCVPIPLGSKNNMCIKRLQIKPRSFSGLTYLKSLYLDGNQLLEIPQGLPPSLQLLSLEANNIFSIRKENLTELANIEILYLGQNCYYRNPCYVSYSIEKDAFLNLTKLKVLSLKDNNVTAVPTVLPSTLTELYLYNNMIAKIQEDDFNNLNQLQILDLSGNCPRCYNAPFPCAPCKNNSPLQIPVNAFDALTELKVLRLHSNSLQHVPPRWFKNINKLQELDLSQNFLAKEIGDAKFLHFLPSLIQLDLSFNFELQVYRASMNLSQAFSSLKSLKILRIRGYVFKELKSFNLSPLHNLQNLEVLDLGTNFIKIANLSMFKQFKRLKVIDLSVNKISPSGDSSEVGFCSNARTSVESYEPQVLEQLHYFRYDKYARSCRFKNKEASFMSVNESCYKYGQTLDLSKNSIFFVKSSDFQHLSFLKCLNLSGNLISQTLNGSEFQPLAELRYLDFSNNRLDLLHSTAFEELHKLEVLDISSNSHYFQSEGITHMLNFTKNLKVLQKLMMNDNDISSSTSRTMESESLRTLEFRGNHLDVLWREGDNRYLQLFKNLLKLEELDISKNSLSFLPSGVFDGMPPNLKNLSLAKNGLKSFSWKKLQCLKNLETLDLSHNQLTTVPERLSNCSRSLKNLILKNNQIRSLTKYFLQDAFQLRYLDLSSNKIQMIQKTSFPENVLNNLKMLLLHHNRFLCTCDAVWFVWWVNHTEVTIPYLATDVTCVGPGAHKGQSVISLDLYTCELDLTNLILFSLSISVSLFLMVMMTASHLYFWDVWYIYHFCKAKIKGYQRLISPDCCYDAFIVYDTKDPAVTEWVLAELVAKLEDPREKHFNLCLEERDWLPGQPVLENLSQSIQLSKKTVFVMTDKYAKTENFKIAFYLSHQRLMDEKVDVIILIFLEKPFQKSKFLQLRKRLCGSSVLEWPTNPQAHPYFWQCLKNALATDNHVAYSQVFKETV
Description: A stable HEK293-Blue-h TLR7 cell line was purchased from InvivoGen (Cat. #: hkb-htlr7, San Diego, California, USA). These cells were designed for studying the stimulation of human TLR7 by monitoring the activation of NF-κB. A SEAP (secreted embryonic alkaline phosphatase) reporter gene was placed under the control of the IFN-β minimal promoter fused to five NF-κB and AP-1-binding sites. The SEAP was induced by activating NF-κB and AP-1 via stimulating HEK-Blue hTLR7 cells with TLR7 ligands. Therefore the reporter expression was regulated by the NF-κB promoter upon stimulation of human TLR7 for 20 hrs. The cell culture supernatant SEAP reporter activity was determined using QUANTI-Blue™ kit (Cat. #: rep-qb1, Invivogen, San Diego, Ca, USA) at a wavelength of 640 nm, a detection medium that turns purple or blue in the presence of alkaline phosphatase.
HEK293-Blue-hTLR7 cells were incubated at a density of 250,000˜450,000 cells/mL in a volume of 180 μL in a 96-well plate in Dulbecco's Modified Eagle's medium (DMEM) containing 4.5 g/L glucose, 50 U/mL penicillin, 50 mg/mL streptomycin, 100 mg/mL Normocin, 2 mM L-glutamine, 10% (V/V) heat-inactivated fetal bovine serum for 24 hrs. Then the HEK293-Blue-hTLR7 cells were incubated with addition of 20 μL test compound in a serial dilution in the presence of final DMSO at 1% and perform incubation under 37° C. in a CO2 incubator for 20 hrs.

[3] = Thermodynamic solubility assay (THESA), equilibrium solubility; assay type: physicochemical; conditions: 22 °C, aqueous buffer, thermodynamic from solid; 50 mM phosphate buffer (pH 6.5), room temperature (22±2° C.)
Protocol: The thermodynamic (equilibrium) solubility is the saturation solubility of a compound at the end of the dissolution process, where the dissolved compound is in equilibrium with the undissolved material in excess. The thermodynamic solubility is determined by dispensing a solid compound into a solvent. This is often deemed as the true solubility of the compound and is a critical piece of information in formulation development. The thermodynamic solubility assay (THESA) is a widely used tool for the measurement of equilibrium solubility for the later drug discovery process and is considered as a gold standard solubility assay.
Approximately 1-2 mg of each compound was added into 300 μL of 50 mM phosphate buffer (pH 6.5) at room temperature (22±2° C.). Each sample is placed in a microanalysis tube, which was sonicated for 1 h and shaken for 2 h. All suspensions were left overnight (about 16 h). On the next day, the samples were filtered into a V-bottom plate with a micronic filterplate to separate the solid material from the solution. Then, all solutions were diluted into 96 well V-bottom microplates and analyzed by UPLC-UV. The calibration line was established by UPLC using 5 different dilutions of the compound in a DMSO stock solution, made in micronic tubes (concentration approximately 1 mg/mL). Dilutions took place with DMSO. From this regression equation the solubility of the compound was determined. In cases where the drug was completely dissolved in the buffer, the value for equilibrium solubility was assumed to be higher than the value determined by UPLC and reported as such.

Structure (SMILES) | solubility kinetic [1] | EC50 [2] | solubility thermodynamic [3]
CP(C)(=O)c1nc(N)c2[nH]c(=O)n(Cc3ccc(NCCN4CCCC4)nc3)c2n1 [Example 7, 6-amino-2-dimethylphosphoryl-9-[[6-(2-pyrrolidin-1-ylethylamino)-3-pyridyl]methyl]-7H-purin-8-one] | > 540 µg/mL | 38 nM | –
CN(C)CC1CCN(c2ccc(Cn3c(=O)[nH]c4c(N)nc(P(C)(C)=O)nc43)cn2)C1 (stereo not shown) [Example 9, 6-amino-9-[[6-[3-[(dimethylamino)methyl]pyrrolidin-1-yl]-3-pyridyl]methyl]-2-dimethylphosphoryl-7H-purin-8-one] | > 650 µg/mL | 21 nM | –
CCN(C)CCNc1ccc(Cn2c(=O)[nH]c3c(N)nc(P(C)(C)=O)nc32)cn1 [Example 12, 6-amino-2-dimethylphosphoryl-9-[[6-[2-[ethyl(methyl)amino]ethylamino]-3-pyridyl]methyl]-7H-purin-8-one] | > 560 µg/mL | 84 nM | –
CC1(C)CN(c2ccc(Cn3c(=O)[nH]c4c(N)nc(P(C)(C)=O)nc43)cn2)CCN1 [Example 4, 6-amino-2-dimethylphosphoryl-9-[[6-(3,3-dimethylpiperazin-1-yl)-3-pyridyl]methyl]-7H-purin-8-one] | > 640 µg/mL | 10 nM | –
CN1CCOC2(CCN(c3ccc(Cn4c(=O)[nH]c5c(N)nc(P(C)(C)=O)nc54)cn3)CC2)C1 [Example 10, 6-amino-2-dimethylphosphoryl-9-[[6-(4-methyl-1-oxa-4,9-diazaspiro[5.5]undecan-9-yl)-3-pyridyl]methyl]-7H-purin-8-one] | > 650 µg/mL | 24 nM | –
CP(C)(=O)c1nc(N)c2[nH]c(=O)n(Cc3ccc(NC4CCOCC4)nc3)c2n1 [Example 8, 6-amino-2-dimethylphosphoryl-9-[[6-(tetrahydropyran-4-ylamino)-3-pyridyl]methyl]-7H-purin-8-one] | > 520 µg/mL | 39 nM | –
CC[P@](C)(=O)c1nc(N)c2[nH]c(=O)n(Cc3ccc(N4CCN(C)CC4)nc3)c2n1 [Example 13-B, 6-amino-2-[(S)-ethyl(methyl)phosphoryl]-9-[[6-(4-methylpiperazin-1-yl)-3-pyridyl]methyl]-7H-purin-8-one] | > 530 µg/mL | – | –
CC[P@@](C)(=O)c1nc(N)c2[nH]c(=O)n(Cc3ccc(N4CCN(S(C)(=O)=O)CC4)nc3)c2n1 [Example 14-A, 6-amino-2-[(R)-ethyl(methyl)phosphoryl]-9-[[6-(4-methylsulfonylpiperazin-1-yl)-3-pyridyl]methyl]-7H-purin-8-one] | 150 µg/mL | – | –
CN1CCC(Nc2ccc(Cn3c(=O)[nH]c4c(N)nc(P(C)(C)=O)nc43)cn2)C1 (stereo not shown) [Example 11, 6-amino-2-dimethylphosphoryl-9-[[6-[(1-methylpyrrolidin-3-yl)amino]-3-pyridyl]methyl]-7H-purin-8-one] | > 620 µg/mL | 28 nM | –
CCP(=O)(CC)c1nc(N)c2[nH]c(=O)n(Cc3ccc(NCCN(C)C)nc3)c2n1 [Example 19, 6-amino-2-diethylphosphoryl-9-[[6-[2-(dimethylamino)ethylamino]-3-pyridyl]methyl]-7H-purin-8-one] | > 580 µg/mL | 9 nM | 2370 µg/mL (≈ 5.47 mM)

More lines, now with the values ahead:

solubility kinetic [1] | EC50 [2] | solubility thermodynamic [3] | Structure (SMILES)
170 µg/mL | – | – | CC[P@](C)(=O)c1nc(N)c2[nH]c(=O)n(Cc3ccc(N4CCN(S(C)(=O)=O)CC4)nc3)c2n1 [Example 14-B, 6-amino-2-[(S)-ethyl(methyl)phosphoryl]-9-[[6-(4-methylsulfonylpiperazin-1-yl)-3-pyridyl]methyl]-7H-purin-8-one]
> 600 µg/mL | 28 nM | – | CP(C)(=O)c1nc(N)c2[nH]c(=O)n(Cc3ccc(N4CCC(N)C4)nc3)c2n1 (stereo not shown) [Example 3, 6-amino-9-[[6-(3-aminopyrrolidin-1-yl)-3-pyridyl]methyl]-2-dimethylphosphoryl-7H-purin-8-one]
> 630 µg/mL | 27 nM | – | CP(C)(=O)c1nc(N)c2[nH]c(=O)n(Cc3ccc(N4CC5CNCC5C4)nc3)c2n1 (stereo not shown) [Example 6, 9-[[6-(2,3,3a,4,6,6a-hexahydro-1H-pyrrolo[3,4-c]pyrrol-5-yl)-3-pyridyl]methyl]-6-amino-2-dimethylphosphoryl-7H-purin-8-one]
> 570 µg/mL | 12 nM | – | CP(C)(=O)c1nc(N)c2[nH]c(=O)n(Cc3ccc(N4CC5CCC4CN5)nc3)c2n1 (stereo not shown) [Example 5, 6-amino-9-[[6-(2,5-diazabicyclo[2.2.2]octan-2-yl)-3-pyridyl]methyl]-2-dimethylphosphoryl-7H-purin-8-one]
> 540 µg/mL | 45 nM | – | CC[P@@](C)(=O)c1nc(N)c2[nH]c(=O)n(Cc3ccc(NCCNC)nc3)c2n1 [Example 17, 6-amino-2-[(R)-ethyl(methyl)phosphoryl]-9-[[6-[2-(methylamino)ethylamino]-3-pyridyl]methyl]-7H-purin-8-one]
